# Measured values published in patent US20260200939A1, “MOLECULAR GLUE DEGRADER COMPOUNDS AND USES THEREOF” (Novartis AG, priority 2022, published 2026).
# How the values were obtained:
# BRD4 short = target: T1, BRD4 short (Homo sapiens, UniProt O60885); experiment: BRD4 (short) degradation assay, Western blotting; type: cell-based
# T1 construct: endogenous in cells; host or cells: HEK293T
# Experimental: (§1) C33A cells were purchased from American Type Culture Collection (ATCC) and were cultured in Dulbecco's Modified Eagle Medium (DMEM) containing 10% (v/v) fetal bovine serum (FBS) and maintained at 37° C. with 5% CO2. 22RV1 cells were purchased from the ATCC and were cultured in RPMI-1640 Medium containing 10% (v/v) FBS and maintained at 37° C. with 5% CO2. HEK293T cells were obtained from the UC Berkeley Cell Culture Facility and were cultured in DMEM containing 10% (v/v) FBS and maintained at 37° C. with 5% CO2. K562 cells were obtained from the UC Berkeley Cell Culture Facility and were cultured in Iscove's Modified Dulbecco's Medium (IMDM) containing 10% (v/v) FBS and maintained at 37° C. with 5% CO2. MV-4-11 cells were obtained from the ATCC and were cultured in IMDM containing 10% (v/v) FBS and maintained at 37° C. with 5% CO2. A549 cells were obtained from the ATCC and were cultured in F-12K Medium containing 10% (v/v) FBS and maintained at 37° C. with 5% CO2. Mino cells were obtained from the ATCC and were cultured in RPMI-1640 Medium containing 10% (v/v) FBS and maintained at 37° C. with 5% CO2. LNCaP cells were obtained from the ATCC and were cultured in RPMI-1640 Medium containing 10% (v/v) FBS and maintained at 37° C. with 5% CO2. Unless otherwise specified, all cell culture materials were purchased from Gibco. It is not known whether HEK293T cells are from male or female origin.
# (§2) Cells were washed twice with cold PBS, scraped, and pelleted by centrifugation (700 g, 5 min, 4° C.). Pellets were resuspended in PBS, sonicated, clarified by centrifugation (12,000 g, 10 min, 4° C.), and lysate was transferred to new low-adhesion microcentrifuge tubes. Proteome concentrations were determined using BCA assay and lysate was diluted to appropriate working concentrations.
# (§3) Proteins were resolved by SDS/PAGE and transferred to nitrocellulose membranes using the Trans-Blot Turbo transfer system (Bio-Rad). Membranes were blocked with 5% BSA in Tris-buffered saline containing Tween 20 (TBS-T) solution for 30 min at RT, washed in TBS-T, and probed with primary antibody diluted in recommended diluent per manufacturer overnight at 4° C. After 3 washes with TBS-T, the membranes were incubated in the dark with IR680- or IR800-conjugated secondary antibodies at 1:10,000 dilution in 5% BSA in TBS-T at RT for 1 h. After 3 additional washes with TBST, blots were visualized using an Odyssey Li-Cor fluorescent scanner. The membranes were stripped using ReBlot Plus Strong Antibody Stripping Solution (EMD Millipore) when additional primary antibody incubations were performed. Antibodies used in this study were CDK4 (Abcam ab108357), Vinculin (Abcam ab129002), GAPDH (Cell Signaling Technology 14C10), RNF126 (Santa Cruz Biotechnology sc-376005), BRD4 (Abcam ab128874), Beta Actin (Cell Signaling Technology 13E5), PDE5 (Abcam ab259945), AR-V7 (Abcam ab273500), c-Abl (Santa Cruz Biotechnology sc-23), SMARCA2 (Abcam ab240648), LRRK2 (Abcam ab133474), BTK (Cell Signaling Technology D3H5), Androgen Receptor (Abcam ab133273).
# BRD4 long = target: T2, BRD4 long (Homo sapiens, UniProt O60885); experiment: BRD4 (long) degradation assay, Western blotting; type: cell-based
# T2 construct: endogenous in cells; host or cells: HEK293T
# Experimental: as §1, §2, §3
# [1] = second value of cell (long/short)
# [2] = first value of cell (long/short)
# [3] = first value of cell, range with lower bound in nM and upper bound in μM
# [4] = second value of cell, range with lower bound in nM and upper bound in μM
DC50 (BRD4 short; [1]) [nM],DC50 (BRD4 long; [2]) [nM],DC50 (BRD4 long; [3]) [nM],DC50 (BRD4 short; [4]) [nM],SMILES
< 100,< 100,,,"Cc1sc2c(c1C)C(c1ccc(Cl)cc1)=N[C@@H](CC(=O)N1CCN(C(=O)/C=C/C(=O)c3ccc4c(c3)CCO4)CC1)c1nnc(C)n1-2 [Compound 210, (S,E)-1-(4-(2-(4-(4-chlorophenyl)-2,3,9-trimethyl-6H-thieno[3,2-f][1,2,4]triazolo[4,3-a][1,4]diazepin-6-yl)acetyl)piperazin-1-yl)-4-(2,3-dihydrobenzofuran-5-yl)but-2-ene-1,4-dione]"
10 to 100,10 to 100,,,"Cc1sc2c(c1C)C(c1ccc(Cl)cc1)=N[C@@H](CC(=O)N[C@H]1C[C@H](NC(=O)/C=C/C(=O)c3ccc4c(c3)CCO4)C1)c1nnc(C)n1-2 [Compound 211, (E)-N-((1S,3r)-3-(2-((S)-4-(4-chlorophenyl)-2,3,9-trimethyl-6H-thieno[3,2-f][1,2,4]triazolo[4,3-a][1,4]diazepin-6-yl)acetamido)cyclobutyl)-4-(2,3-dihydrobenzofuran-5-yl)-4-oxobut-2-enamide]"
10 to 100,,100 to 1000,,"COc1ccc(C(=O)/C=C/C(=O)N2C[C@H]3CN(C(=O)C[C@@H]4N=C(c5ccc(Cl)cc5)c5c(sc(C)c5C)-n5c(C)nnc54)[C@H]3C2)cc1 [Compound 212, (E)-1-((1S,5R)-6-(2-((S)-4-(4-chlorophenyl)-2,3,9-trimethyl-6H-thieno[3,2-f][1,2,4]triazolo[4,3-a][1,4]diazepin-6-yl)acetyl)-3,6-diazabicyclo[3.2.0]heptan-3-yl)-4-(4-methoxyphenyl)but-2-ene-1,4-dione]"
,,100 to 1000,100 to 1000,"COc1ccc(C(=O)/C=C/C(=O)N2C[C@@H]3CN(C(=O)C[C@@H]4N=C(c5ccc(Cl)cc5)c5c(sc(C)c5C)-n5c(C)nnc54)[C@@H]3C2)cc1 [Compound 213, (E)-1-((1R,5S)-6-(2-((S)-4-(4-chlorophenyl)-2,3,9-trimethyl-6H-thieno[3,2-f][1,2,4]triazolo[4,3-a][1,4]diazepin-6-yl)acetyl)-3,6-diazabicyclo[3.2.0]heptan-3-yl)-4-(4-methoxyphenyl)but-2-ene-1,4-dione]"
10 to 100,10 to 100,,,"COc1ccc(C(=O)/C=C/C(=O)N2CCN(C(=O)C[C@@H]3N=C(c4ccc(Cl)cc4)c4c(sc(C)c4C)-n4c(C)nnc43)C[C@@H]2C)cc1 [Compound 214, (E)-1-((S)-4-(2-((S)-4-(4-chlorophenyl)-2,3,9-trimethyl-6H-thieno[3,2-f][1,2,4]triazolo[4,3-a][1,4]diazepin-6-yl)acetyl)-2-methylpiperazin-1-yl)-4-(4-methoxyphenyl)but-2-ene-1,4-dione]"
10 to 100,< 10,,,"COc1ccc(C(=O)/C=C/C(=O)N2[C@H](C)CN(C(=O)C[C@@H]3N=C(c4ccc(Cl)cc4)c4c(sc(C)c4C)-n4c(C)nnc43)C[C@@H]2C)cc1 [Compound 215, (E)-1-((2S,6R)-4-(2-((S)-4-(4-chlorophenyl)-2,3,9-trimethyl-6H-thieno[3,2-f][1,2,4]triazolo[4,3-a][1,4]diazepin-6-yl)acetyl)-2,6-dimethylpiperazin-1-yl)-4-(4-methoxyphenyl)but-2-ene-1,4-dione]"
< 10,< 10,,,"COc1ccc(C(=O)/C=C/C(=O)N2CCN(C(=O)C[C@@H]3N=C(c4ccc(Cl)cc4)c4c(sc(C)c4C)-n4c(C)nnc43)[C@@H](C)C2)cc1 [Compound 216, (E)-1-((S)-4-(2-((S)-4-(4-chlorophenyl)-2,3,9-trimethyl-6H-thieno[3,2-f][1,2,4]triazolo[4,3-a][1,4]diazepin-6-yl)acetyl)-3-methylpiperazin-1-yl)-4-(4-methoxyphenyl)but-2-ene-1,4-dione]"
< 10,< 10,,,"COc1ccc(C(=O)/C=C/C(=O)N2CCN(C(=O)C[C@@H]3N=C(c4ccc(Cl)cc4)c4c(sc(C)c4C)-n4c(C)nnc43)C[C@H]2C)cc1 [Compound 217, (E)-1-((R)-4-(2-((S)-4-(4-chlorophenyl)-2,3,9-trimethyl-6H-thieno[3,2-f][1,2,4]triazolo[4,3-a][1,4]diazepin-6-yl)acetyl)-2-methylpiperazin-1-yl)-4-(4-methoxyphenyl)but-2-ene-1,4-dione]"
< 10,< 10,,,"COc1ccc(C(=O)/C=C/C(=O)N2CCN(C(=O)C[C@@H]3N=C(c4ccc(Cl)cc4)c4c(sc(C)c4C)-n4c(C)nnc43)[C@H](C)C2)cc1 [Compound 218, (E)-1-((R)-4-(2-((S)-4-(4-chlorophenyl)-2,3,9-trimethyl-6H-thieno[3,2-f][1,2,4]triazolo[4,3-a][1,4]diazepin-6-yl)acetyl)-3-methylpiperazin-1-yl)-4-(4-methoxyphenyl)but-2-ene-1,4-dione]"
,,100 to 1000,100 to 1000,"COc1ccc(C(=O)/C=C/C(=O)N2CCCN(C(=O)C[C@@H]3N=C(c4ccc(Cl)cc4)c4c(sc(C)c4C)-n4c(C)nnc43)CC2)cc1 [Compound 219, (S,E)-1-(4-(2-(4-(4-chlorophenyl)-2,3,9-trimethyl-6H-thieno[3,2-f][1,2,4]triazolo[4,3-a][1,4]diazepin-6-yl)acetyl)-1,4-diazepan-1-yl)-4-(4-methoxyphenyl)but-2-ene-1,4-dione]"
10 to 100,10 to 100,,,"COc1ccc(C(=O)/C=C/C(=O)N2CCN(C(=O)C[C@@H]3N=C(c4ccc(Cl)cc4)c4c(sc(C)c4C)-n4c(C)nnc43)CC23CC3)cc1 [Compound 221, (S,E)-1-(7-(2-(4-(4-chlorophenyl)-2,3,9-trimethyl-6H-thieno[3,2-f][1,2,4]triazolo[4,3-a][1,4]diazepin-6-yl)acetyl)-4,7-diazaspiro[2.5]octan-4-yl)-4-(4-methoxyphenyl)but-2-ene-1,4-dione]"
1 to 10,1 to 10,,,COc1ccc(C(=O)/C=C/C(=O)NC2CC(NC(=O)C[C@@H]3N=C(c4ccc(Cl)cc4)c4c(sc(C)c4C)-n4c(C)nnc43)C2)cc1 (some centres unmarked) [Compound 222]
12,8,,,"COc1ccc(C(=O)/C=C/C(=O)N[C@H]2C[C@H](NC(=O)C[C@@H]3N=C(c4ccc(Cl)cc4)c4c(sc(C)c4C)-n4c(C)nnc43)C2)cc1 [Compound 223, (E)-N-((1S,3r)-3-(2-((S)-4-(4-chlorophenyl)-2,3,9-trimethyl-6H-thieno[3,2-f][1,2,4]triazolo[4,3-a][1,4]diazepin-6-yl)acetamido)cyclobutyl)-4-(4-methoxyphenyl)-4-oxobut-2-enamide]"
1 to 10,1 to 10,,,"COc1ccc(C(=O)/C=C/C(=O)N2CCC3(CCN(C(=O)C[C@@H]4N=C(c5ccc(Cl)cc5)c5c(sc(C)c5C)-n5c(C)nnc54)C3)C2)cc1 (stereo partly drawn) [Compound 224, (E)-1-(7-(2-((S)-4-(4-chlorophenyl)-2,3,9-trimethyl-6H-thieno[3,2-f][1,2,4]triazolo[4,3-a][1,4]diazepin-6-yl)acetyl)-2,7-diazaspiro[4.4]nonan-2-yl)-4-(4-methoxyphenyl)but-2-ene-1,4-dione]"
,< 10,,100 to 1000,"COc1ccc(C(=O)/C=C/C(=O)N2CC3CCN(C(=O)C[C@@H]4N=C(c5ccc(Cl)cc5)c5c(sc(C)c5C)-n5c(C)nnc54)CC3C2)cc1 (stereo partly drawn) [Compound 225, (E)-1-(5-(2-((S)-4-(4-chlorophenyl)-2,3,9-trimethyl-6H-thieno[3,2-f][1,2,4]triazolo[4,3-a][1,4]diazepin-6-yl)acetyl)octahydro-2H-pyrrolo[3,4-c]pyridin-2-yl)-4-(4-methoxyphenyl)but-2-ene-1,4-dione]"
10 to 100,10 to 100,,,"COc1ccc(C(=O)/C=C/C(=O)N2CC3CCC2CN3C(=O)C[C@@H]2N=C(c3ccc(Cl)cc3)c3c(sc(C)c3C)-n3c(C)nnc32)cc1 (stereo partly drawn) [Compound 226, (E)-1-(5-(2-((S)-4-(4-chlorophenyl)-2,3,9-trimethyl-6H-thieno[3,2-f][1,2,4]triazolo[4,3-a][1,4]diazepin-6-yl)acetyl)-2,5-diazabicyclo[2.2.2]octan-2-yl)-4-(4-methoxyphenyl)but-2-ene-1,4-dione]"
